The test system of assay [1] is Escherichia coli. Put plainly: Induction of Cu(2)-mediated pBR322 DNA cleavage assessed as conversion of supercoiled to relaxed open circle at 300 uM by agarose gel electrophoresis in presence of catalase.
Assay [2] relates to Escherichia coli. Put plainly: Induction of Cu(2)-mediated pBR322 DNA cleavage assessed as conversion of supercoiled to relaxed open circle at 300 uM by agarose gel electrophoresis in presence of potassium iodide.
The subject of assay [3] is Escherichia coli. Put plainly: Induction of Cu(2)-mediated pBR322 DNA cleavage assessed as conversion of supercoiled to relaxed open circle at 300 uM by agarose gel electrophoresis in presence of superoxide dismutase.
Assay [4] relates to Escherichia coli. Put plainly: Induction of Cu(2)-mediated pBR322 DNA cleavage assessed as conversion of supercoiled to relaxed open circle at 50 to 300 uM by agarose gel electrophoresis.

Molecules are shown by their SMILES. Active and inactive are the calls of the source. The rule behind the calls is not given here.

`C=C(C)CC[C@@H](C[C@H]1C[C@@]2(CC=C(C)C)C(=O)C(CC=C(C)C)=C(O)[C@@](C(=O)c3ccc(O)c(O)c3)(C2=O)C1(C)C)C(=C)C` (stereo in doubt; 2a): the result in the assay on Escherichia coli [1], in the assay with Escherichia coli [2] and in the assay with Escherichia coli [3] was Active.

As to `C=C(C)CC[C@@H](C[C@@H]1C[C@]2(CC=C(C)C)C(=O)[C@@](C(=O)c3ccc(O)c(O)c3)(C(=O)C3=C2O[C@@H](C(C)(C)O)C3)C1(C)C)C(=C)C`, the outcome with Escherichia coli [4] was inactive.

Regarding `CC(C)=CC[C@]12C[C@H](O)C(C)(C)O[C@@H](C(C)(C)O)C[C@@](O)(C(=O)C(C(=O)C(C)C)=C1O)C2=O`, the outcome in the assay on Escherichia coli [1], in the assay with Escherichia coli [4], with Escherichia coli [2] and in the assay on Escherichia coli [3] was Active.

For the compound `C=C(C)CC[C@@H](C[C@H]1C[C@@]2(CC=C(C)C)C(=O)C(CC=C(C)C)=C(O)[C@@](C(=O)c3ccc(O)c(O)c3)(C2=O)C1(C)C)C(=C)C` (stereo in doubt; 2), the outcome in the assay with Escherichia coli [1], with Escherichia coli [2] and with Escherichia coli [3] was Active.

Source of the values: ChEMBL document CHEMBL1144704, “Phloroglucinols with prooxidant activity from Garcinia subelliptica” (J Nat Prod, 2008).
